Laboratory results from publication PMC11139883, “Functional and structural dissection of glycosyltransferases underlying the glycodiversity of wolfberry-derived bioactive ingredients lycibarbarspermidines” (Nature Communications, 2024).
Each block holds one molecule with its values, some of them ahead of it.

Key:
Test in all cases: LC-MS product assay, Michaelis-Menten fit
Assay type in all cases: biochemical, Lycium barbarum
Conditions in all cases: 2.5 mM UDP-Glc, 1 mM MgCl2, 10 mM HEPES pH 7.0, 30 °C
[1] = test system: T1, LbUGT2
T1 construct: full length; GST fusion (pGEX-2TK) from E. coli Rosetta (DE3)
Excerpt: LC-MS product assay, Michaelis-Menten fit on LbUGT2

[2] = test system: T2, LbUGT3
T2 construct: full length (482 residues by printed domain borders); GST fusion (pGEX-2TK) from E. coli Rosetta (DE3) for assays; crystal protein with GST-His tag removed by TEV
Excerpt: LC-MS product assay, Michaelis-Menten fit on LbUGT3

[3] = test system: T3, LbUGT4
T3 construct: full length; GST fusion (pGEX-2TK) from E. coli Rosetta (DE3)
Excerpt: LC-MS product assay, Michaelis-Menten fit on LbUGT4

[4] = substrate: O=C(/C=C/c1ccc(O)c(O)c1)NCCCNCCCCNC(=O)CCc1ccc(O)c(O)c1
Excerpt: LC-MS product assay, Michaelis-Menten fit on LbUGT1

Km [1]: 762 µM
Km [2]: 325 µM
Km [3]: 901 µM
Molecule: O=C(/C=C/c1ccc(O)c(O)c1)NCCCNCCCCNC(=O)CCc1ccc(O)c(O)c1 [compound 1, N^1-caffeoyl-N^10-dihydrocaffeoylspermidine]

B1: LbUGT1 (Lycium barbarum) (protein)
chain: LTTKAELVFIPSPGAGHLISAIEIAKLILNRDERLCISVLIMKLPMDFGVQSYVASLSSSPRLQFVDITLDEKTVAGLLKNKESFFTDFIQGHKPKVKDFIHNTSFSKSGSGFSRLAGFVLDMFCTSMIDVASEFSVPSYIFLTSNAAFLALCYHFESLKKEHHIDTSKYKDSDEELTIPGFKNPYPGKFLPRLTTDQTTATTLFFDSVTRFKETKGIMVNTFAELEPFALQSLLVPKIYPVGPVVNFKEGGHGRNSESETESIIKWLDDQPESSVVFLCFGSMGSFDAEQIEEIAVALECSGHRFLWSLRRPPPKGKMELPSNYEDFQEVLPEGFIERTNGVGKVIGWAPQVAVLSHPAVGGFVSHCGWNSVLESLCFGVPIGAWPQYAEQQMNAFELVKQLGLAVEIRMDYFKDFEGKHGPVEIVTAKEIASGIRQLMADGEENEIRKRAKEMKEKSSAAMKEGGSSYASLGLLIEDVISNIS
notes: full length (485 residues by printed domain borders); GST fusion (pGEX-2TK) from E. coli Rosetta (DE3) for assays; crystal protein with MBP-His tag removed by TEV
Km [4]: 259.4 µM
kcat [4]: 0.0057 s⁻¹
kcat/Km [4]: 22.1 M⁻¹ s⁻¹
